Test results as given in patent US9790180B2, “Piperidine derivatives as HDAC1/2 inhibitors” (Acetylon Pharmaceuticals, Inc., priority 2014, dated 2017).

Columns and labels:
Gata2 mRNA = Gata2 mRNA induction in erythroid progenitors; type: cell-based, human; settings: primary erythroid progenitors, 3 days differentiation, relative to beta-actin mRNA (FIG. 7)
From the text: Human bone marrow derived CD34+ cells were expanded for 7 days as described by Sankaran et al., Science, vol. 322(5909), pp. 1839-42 (2008). Cells were then differentiated, in the presence of the indicated concentration of Compound 005, Compound A (another known HDAC1/2 inhibitor), or vehicle control (DMSO), for 3 days in media supporting erythropoiesis (Hu et al., “Isolation and functional characterization of human erythroblasts at distinct stages: implications for understanding of normal and disordered erythropoiesis in vivo”, Blood, vol. 121(16), pp. 3246-53 ([…])). Gata2 mRNA was determined using quantitative real time PCR and expressed relative to the level beta-actin mRNA control.

HDAC2 = HDAC2 (Homo sapiens (Human), UniProt Q92769); test: HDAC enzyme assay, HDAC2; type: biochemical; settings: 24 hours pre-incubation with enzyme; read-out: IC50 (nM) HDAC2
Sequence of HDAC2 (Q92769 whole entry): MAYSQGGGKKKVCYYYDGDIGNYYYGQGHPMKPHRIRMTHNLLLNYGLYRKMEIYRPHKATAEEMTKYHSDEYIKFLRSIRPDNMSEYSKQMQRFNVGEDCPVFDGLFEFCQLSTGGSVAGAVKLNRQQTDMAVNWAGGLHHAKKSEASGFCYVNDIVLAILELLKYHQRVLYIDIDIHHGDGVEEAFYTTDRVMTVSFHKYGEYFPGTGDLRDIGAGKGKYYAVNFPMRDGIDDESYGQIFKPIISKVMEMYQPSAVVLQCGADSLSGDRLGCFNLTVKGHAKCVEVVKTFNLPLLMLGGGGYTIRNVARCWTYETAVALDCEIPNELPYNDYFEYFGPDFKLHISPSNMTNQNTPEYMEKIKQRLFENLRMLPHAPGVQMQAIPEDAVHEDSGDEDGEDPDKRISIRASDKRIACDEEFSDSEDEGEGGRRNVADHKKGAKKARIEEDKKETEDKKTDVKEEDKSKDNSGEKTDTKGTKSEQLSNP
Procedure: Compounds for testing were diluted in DMSO to 50 fold the final concentration and a ten point three fold dilution series was made. The compounds were diluted in assay buffer (50 mM HEPES, pH 7.4, 100 mM KCl, 0.001% Tween-20, 0.05% BSA, 20 μM tris(2-carboxyethyl)phosphine) to 6 fold their final concentration. The HDAC enzymes (purchased from BPS Biosciences) were diluted to 1.5 fold their final concentration in assay buffer and pre-incubated with the compounds for 24 hours prior to addition of the substrate.
The substrate tripeptide substrate 3 (synthesized in house) for each enzyme was equal to the Km as determined by a substrate titration curve. The substrates were diluted in assay buffer at 6× their final concentration with 0.3 μM sequencing grade trypsin (Sigma). The substrate/trypsin mix was added to the enzyme/compound mix, the plate was shaken for 60 seconds and placed into a Spectramax M5 microtiter plate reader. The development of fluorescence was monitored for 30 min and the linear rate of the reaction was calculated. The IC50 was determined using Graph Pad Prism by a four parameter curve fit. The IC50 values obtained for the compounds of this invention are found in Table 1. Examples of the curves are found in FIGS. 1 and 4.

[1] = tested on: bacterial tester strains TA98, TA100, TA1535 and TA97a and E. coli tester strain WP2 uvrA; test: Ames genotoxicity (bacterial reverse mutation); settings: In vitro tox
Procedure: For genotoxicity, bacterial tester strains TA98, TA100, TA1535 and TA97a as described by Ames et al. (1975) and the E. coli tester strain WP2 uvrA as described by Green and Muriel (1976) were incubated with Compound 003 at 250, 75, 25, 7.5, 2.5, 0.75, 0.25, and 0.075 μg/well in 24 well plates either with or without liver homogenate (S9) purchased commercially (MolTox; Boone, N.C.) prepared from male Sprague Dawley rats that have been injected intraperitonealy with Aroclor 1254 (200 mg/mL in corn oil), at a dose of 500 mg/kg, 5 days before sacrifice. Mutagenicity is evaluated by counting the number of colonies that form on non-permissive media.

## CN1CCN(C(=O)N2CCC(Nc3ccc(C(=O)Nc4cc(-c5cccs5)ccc4N)cc3)CC2)CC1 [Compound 005]
Gata2 mRNA
  induction of Gata2 mRNA: equivalent dose and time-dependent induction
HDAC2
  IC50: 4.9 nM
[1]
  Ames: Neg
